Test results as given in PubChem BioAssay (NCI).
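96-well plates; 48 h exposure; 5 concentrations. Endpoints by linear interpolation between flanking doses. Not reached: highest tested concentration assigned. GI50 = concentration required for 50% inhibition of growth. The concentration for full growth arrest is given as TGI.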

Columns and labels:
Assay in all cases: NCI anticancer screen, dose series, 48 h
CAKI-1 renal = system: CAKI-1 renal
DU-145 prostate = system: DU-145 prostate
HOP-92 NSCLC = system: HOP-92 NSCLC
HS 578T breast = system: HS 578T breast
OVCAR-4 ovarian = system: OVCAR-4 ovarian
SK-MEL-5 melanoma = system: SK-MEL-5 melanoma
UACC-257 melanoma = system: UACC-257 melanoma
786-0 renal = system: 786-0 renal
A549 NSCLC = system: A549 NSCLC
ACHN renal = system: ACHN renal
BT-549 breast = system: BT-549 breast
CCRF-CEM leukemia = system: CCRF-CEM leukemia
COLO 205 colon = system: COLO 205 colon
EKVX NSCLC = system: EKVX NSCLC
HCC-2998 colon = system: HCC-2998 colon
HCT-116 colon = system: HCT-116 colon
HCT-15 colon = system: HCT-15 colon
HL-60(TB) leukemia = system: HL-60(TB) leukemia
HOP-62 NSCLC = system: HOP-62 NSCLC
HT29 colon = system: HT29 colon
IGROV1 ovarian = system: IGROV1 ovarian
K-562 leukemia = system: K-562 leukemia
KM12 colon = system: KM12 colon
LOX IMVI melanoma = system: LOX IMVI melanoma
M14 melanoma = system: M14 melanoma
MCF7 breast = system: MCF7 breast
MDA-MB-231 breast = system: MDA-MB-231 breast
MDA-MB-435 = system: MDA-MB-435
MOLT-4 leukemia = system: MOLT-4 leukemia
NCI-H226 lung = system: NCI-H226 lung
NCI-H23 lung = system: NCI-H23 lung
NCI-H460 lung = system: NCI-H460 lung
NCI-H522 lung = system: NCI-H522 lung
NCI/ADR-RES ovarian = system: NCI/ADR-RES ovarian
OVCAR-3 ovarian = system: OVCAR-3 ovarian
OVCAR-5 ovarian = system: OVCAR-5 ovarian
OVCAR-8 ovarian = system: OVCAR-8 ovarian
PC-3 prostate = system: PC-3 prostate
RPMI-8226 leukemia = system: RPMI-8226 leukemia
RXF 393 renal = system: RXF 393 renal
SF-268 CNS = system: SF-268 CNS
SF-295 CNS = system: SF-295 CNS
SK-MEL-2 melanoma = system: SK-MEL-2 melanoma
SK-MEL-28 melanoma = system: SK-MEL-28 melanoma
SN12C renal = system: SN12C renal
SNB-19 CNS = system: SNB-19 CNS
SW-620 colon = system: SW-620 colon
T-47D breast = system: T-47D breast
TK-10 renal = system: TK-10 renal
U251 CNS = system: U251 CNS
UACC-62 melanoma = system: UACC-62 melanoma
UO-31 renal = system: UO-31 renal

CC(C)(C)c1cc(C(=O)Nc2cc3ccccc3cc2C(=O)NCCN)cc(C(C)(C)C)c1
GI50 (CAKI-1 renal): 1130 nM | TGI (CAKI-1 renal): 2440 nM | GI50 (DU-145 prostate): 374 nM | TGI (DU-145 prostate): 1290 nM | GI50 (HOP-92 NSCLC): 0.146 µM | TGI (HOP-92 NSCLC): 396 nM | GI50 (HS 578T breast): 1.65 µM | TGI (HS 578T breast): 4.57 µM | GI50 (OVCAR-4 ovarian): 1240 nM | TGI (OVCAR-4 ovarian): 2700 nM | GI50 (SK-MEL-5 melanoma): 1.65 µM | TGI (SK-MEL-5 melanoma): 3.17 µM | GI50 (UACC-257 melanoma): 2350 nM | TGI (UACC-257 melanoma): 4.98 µM

COC(=O)C1=C(O)C(C(=O)OC)[C@@]2(O)[C@@H](C(=O)OC)C(c3ccc(OC(=O)C(CC(C)C)NC(C)=O)cc3)C[C@@H]1[C@@H]2C(=O)OC (some centres undefined)
GI50 (786-0 renal): 46.2 µM | TGI (786-0 renal): > 100 µM | GI50 (A549 NSCLC): 38.3 µM | TGI (A549 NSCLC): > 100 µM | GI50 (ACHN renal): 41.9 µM | TGI (ACHN renal): > 100 µM | GI50 (BT-549 breast): 33.6 µM | TGI (BT-549 breast): > 100 µM | GI50 (CAKI-1 renal): > 100000 nM | TGI (CAKI-1 renal): > 100000 nM | GI50 (CCRF-CEM leukemia): 41.4 µM | TGI (CCRF-CEM leukemia): > 100 µM | GI50 (COLO 205 colon): 46.6 µM | TGI (COLO 205 colon): > 100 µM | GI50 (EKVX NSCLC): 39.7 µM | TGI (EKVX NSCLC): > 100 µM | GI50 (HCC-2998 colon): 19 µM | TGI (HCC-2998 colon): 52 µM | GI50 (HCT-116 colon): 29.3 µM | TGI (HCT-116 colon): > 100 µM | GI50 (HCT-15 colon): 31.9 µM | TGI (HCT-15 colon): > 100 µM | GI50 (HL-60(TB) leukemia): 43.9 µM | TGI (HL-60(TB) leukemia): > 100 µM | GI50 (HOP-62 NSCLC): 31.2 µM | TGI (HOP-62 NSCLC): > 100 µM | GI50 (HOP-92 NSCLC): 39.5 µM | TGI (HOP-92 NSCLC): > 100000 nM | GI50 (HS 578T breast): 58.3 µM | TGI (HS 578T breast): > 100 µM | GI50 (HT29 colon): 62.2 µM | TGI (HT29 colon): > 100 µM | GI50 (IGROV1 ovarian): > 100 µM | TGI (IGROV1 ovarian): > 100 µM | GI50 (K-562 leukemia): 95 µM | TGI (K-562 leukemia): > 100 µM | GI50 (KM12 colon): 28.2 µM | TGI (KM12 colon): > 100 µM | GI50 (LOX IMVI melanoma): 20.6 µM | TGI (LOX IMVI melanoma): 45 µM | GI50 (M14 melanoma): 27.5 µM | TGI (M14 melanoma): 88.1 µM | GI50 (MCF7 breast): 48.8 µM | TGI (MCF7 breast): > 100 µM | GI50 (MDA-MB-231 breast): 30 µM | TGI (MDA-MB-231 breast): > 100 µM | GI50 (MDA-MB-435): > 100 µM | TGI (MDA-MB-435): > 100 µM | GI50 (MOLT-4 leukemia): 48.3 µM | TGI (MOLT-4 leukemia): 97.2 µM | GI50 (NCI-H226 lung): 43 µM | TGI (NCI-H226 lung): > 100 µM | GI50 (NCI-H23 lung): 36.9 µM | TGI (NCI-H23 lung): > 100 µM | GI50 (NCI-H460 lung): 41.6 µM | TGI (NCI-H460 lung): > 100 µM | GI50 (NCI-H522 lung): 60.9 µM | TGI (NCI-H522 lung): > 100 µM | GI50 (NCI/ADR-RES ovarian): 39 µM | TGI (NCI/ADR-RES ovarian): > 100 µM | GI50 (OVCAR-3 ovarian): > 100 µM | TGI (OVCAR-3 ovarian): > 100 µM | GI50 (OVCAR-5 ovarian): 32.2 µM | TGI (OVCAR-5 ovarian): > 100 µM | GI50 (OVCAR-8 ovarian): 43.7 µM | TGI (OVCAR-8 ovarian): > 100 µM | GI50 (PC-3 prostate): 33.9 µM | TGI (PC-3 prostate): > 100 µM | GI50 (RPMI-8226 leukemia): > 100 µM | TGI (RPMI-8226 leukemia): > 100 µM | GI50 (RXF 393 renal): > 100 µM | TGI (RXF 393 renal): > 100 µM | GI50 (SF-268 CNS): 35.7 µM | TGI (SF-268 CNS): > 100 µM | GI50 (SF-295 CNS): 74.8 µM | TGI (SF-295 CNS): > 100 µM | GI50 (SK-MEL-2 melanoma): 81.9 µM | TGI (SK-MEL-2 melanoma): > 100 µM | GI50 (SK-MEL-28 melanoma): > 100 µM | TGI (SK-MEL-28 melanoma): > 100 µM | GI50 (SK-MEL-5 melanoma): 18.5 µM | TGI (SK-MEL-5 melanoma): > 100 µM | GI50 (SN12C renal): 30.2 µM | TGI (SN12C renal): > 100 µM | GI50 (SNB-19 CNS): 37.1 µM | TGI (SNB-19 CNS): > 100 µM | GI50 (SW-620 colon): 55.5 µM | TGI (SW-620 colon): > 100 µM | GI50 (T-47D breast): 37.8 µM | TGI (T-47D breast): > 100 µM | GI50 (TK-10 renal): 57.4 µM | TGI (TK-10 renal): > 100 µM | GI50 (U251 CNS): 26.5 µM | TGI (U251 CNS): 76.4 µM | GI50 (UACC-257 melanoma): > 100000 nM | TGI (UACC-257 melanoma): > 100 µM | GI50 (UACC-62 melanoma): 23.2 µM | TGI (UACC-62 melanoma): 63.8 µM | GI50 (UO-31 renal): > 100 µM | TGI (UO-31 renal): > 100 µM
